In brackets after ≈: the same amount, converted by molar mass.
Test system: isolated guinea pig left atrium
Assay: electrically-driven guinea pig left atrium contractile force assay (positive inotropic effect)
Conditions: for Ionotropic Activity (% Change of Contractile Force): at the concentration of the same line (extrapolated ED50: A 0.04, B 0.073 μg/ml)
Procedure: The forskolin derivatives of the present invention are useful in the treatment of cardiac failure by virtue of their ability to elicit a positive inotropic effect as determined in the isolated guinea pig atria contractile force assay. The electrically-driven guinea pig left atrium assay is performed as follows: Male guinea pigs weighing 200-300 grams are stunned with a blow to the back of the head. The heart is rapidly removed and placed in a petri dish containing Krebs solution. The ventricle is separated from the atria, the atria are sectioned in the right and left atria, and double-O silk ligatures are tied to the apex of the left atrium. The atrium is fixed to a pair of platinum plate electrodes and suspended in a 20-ml tissue bath containing Kreb's solution aerated with 95% oxygen-5% carbon dioxide at 37° C. One end of the atrium is fixed to a hook in the electrode and the other end is connected to a Grass FTO3 force displacement transducer. Resting tension and stabilization time are the same as described above. The atrium is stimulated at 3 Hz, 0.5 msec duration at supramaximal voltage (constant current) via a Grass S88 stimulator and constant current unit. Force of contraction is continuously displaced on a Gould recorder. Test drug is prepared and is added to the tissue baths. Change in contractile force from baseline is determined for each concentration, and the change in contractile force (g) is plotted against accumulated drug concentration (μg/ml) The activity of the test drug, i.e., the increase in contractile force (g) from the stabilized force expressed as the percentage change at a given concentration is determined graphically, as is the ED50 -value, i.e., the extrapolated dose (μg/ml) which increases the contractile force by 50% over the stabilized rate.

Row | SMILES | EC50 (Cavia porcellus, isolated left atrium, stimulated at 3 Hz, 37° C., Krebs solution, read-out: Extrapolated ED50 value (concentration which increases the contractile force by 50%)) [µg/mL] | Ionotropic Activity (% Change of Contractile Force) [%] | Extrapolated ED50 value (concentration which increases the contractile force by 50%) (isolated left atrium, stimulated at 3 Hz, 37° C., Krebs solution) [µg/mL]
1 | C=C[C@@]1(C)CC(=O)[C@]2(O)[C@@]3(C)[C@@H](O)CCC(C)(C)[C@@H]3[C@H](O)[C@H](OC(C)=O)[C@@]2(C)O1 [B, Forskolin] | 0.073 (≈ 0.178 µM) | 50 | 
2 | C=CC1(C)CC(=O)C2(O)C(C)(O1)C(Oc1ncccn1)CC1C(C)(C)CCC(O)C12C.Cl (stereo not shown) [A, 6-Deoxy-7-desacetyl-7-(pyrimidin-2-yl)forskolin hydrochloride] |  | 50 | 0.04
